Data taken from ChEMBL document CHEMBL6096692, “Discovery of 2(1H)-Quinoxalinone Derivatives as Potent and Selective MAT2A Inhibitors for the Treatment of MTAP-Deficient Cancers” (J Med Chem, 2025).
Converted amounts (≈) assume the structure as drawn. The source made the active and inactive calls. The calls are words filed in the database; no cut-off is given here.

What was measured:
BXPC-3 = experiment: Antiproliferative activity against MTAP null human BXPC-3 cells assessed as inhibition of cell viability measured for 96 hrs by SRB assay; type: functional, cell-based
[1] = Lipophilicity, LogD of the compound in 1-Octanol/PBS by shake flask method; type: physicochemical
SF-126 [2] = experiment: Induction of DNA damage in MTAP knockout human SF-126 cells assessed as increase in gammaH2AX level at 0.1 to 10 uM measured for 96 hrs by Western blot analysis; type: functional, cell-based; conditions: dose 0.1-10 µM
Daoy [3] = experiment: Antiproliferative activity against MTAP null human Daoy cells assessed as inhibition of cell viability measured for 96 hrs by SRB assay; type: functional, cell-based
[4] = Plasma protein binding in human assessed as unbound fraction; type: ADME, cell-free
B16-F10 [5] = experiment: Antitumor activity against mouse B16-F10 cells harboring wild type MTAP implanted in mouse assessed as reduction in tumor volume at 30 to 60 mg/kg, po administered for 10 days and measured after 12 days; type: functional, organism-based; conditions: dose 30-60 mg/kg, time 22.0 day
MIA PaCa-2 = experiment: Antitumor activity against MTAP null human MIA PaCa-2 cells xenografted in mouse assessed as tumor growth inhibition at 60 mg/kg, po measured after 28 days; type: functional, organism-based; conditions: time 28.0 day
[6] = target: T1, S-adenosylmethionine synthase isoform type-2 (Homo sapiens, UniProt P31153); experiment: Inhibition of MAT2A (unknown origin) using L-methionine and ATP as substrate preincubated with compound for 10 mins followed by substrate addition and measured after 60 mins by kinase-glo max reagent based microplate reader analysis
Target sequence in this assay (P31153 whole entry, canonical isoform): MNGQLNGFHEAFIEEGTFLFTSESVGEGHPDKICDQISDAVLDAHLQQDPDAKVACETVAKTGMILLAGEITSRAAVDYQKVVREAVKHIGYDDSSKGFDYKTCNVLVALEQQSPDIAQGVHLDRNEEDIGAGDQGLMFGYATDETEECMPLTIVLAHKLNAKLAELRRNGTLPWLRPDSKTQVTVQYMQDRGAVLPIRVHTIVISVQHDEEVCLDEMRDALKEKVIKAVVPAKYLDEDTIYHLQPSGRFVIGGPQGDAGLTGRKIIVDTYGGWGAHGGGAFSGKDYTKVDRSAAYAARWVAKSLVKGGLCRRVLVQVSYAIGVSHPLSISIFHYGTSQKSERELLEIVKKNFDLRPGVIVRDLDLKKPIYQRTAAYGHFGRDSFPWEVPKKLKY

[7] = Kinetic solubility of compound in phosphate buffer at pH 7.4; type: physicochemical; conditions: read-out: Kinetic_solubility
SF-126 [8] = experiment: Induction of DNA damage in MTAP knockout human SF-126 cells assessed as increase in gammaH2AX level at 0.1 to 10 uM measured for 96 hrs by immunofluorescence analysis; type: functional, cell-based; conditions: dose 0.1-10 µM
[9] = target: S-adenosylmethionine synthase isoform type-2 (Mus musculus) (UniProt Q3THS6); experiment: Inhibition of MAT2A in MTAP null mouse B16-F10 cells assessed as reduction in SAM level measured for 4 hrs by immunoblotting analysis; type: cell-based; conditions: dose <= 1.0 µM
S-adenosylmethionine synthase isoform type-2 (Mus musculus), sequence (Q3THS6 whole entry, canonical isoform): as the sequence (P31153 whole entry, canonical isoform) above, with V77I, V87I counted along it

[10] = Half life in male ICR mouse at 10 mg/kg, po measured upto 36 hrs by LC-MS/MS analysis; type: ADME, organism-based; conditions: in vivo
[11] = Clearance in male ICR mouse at 1 mg/kg, iv measured upto 36 hrs by LC-MS/MS analysis; type: ADME, organism-based; conditions: in vivo
[12] = Bioavailability in male ICR mouse at 1 mg/kg measured upto 36 hrs by LC-MS/MS analysis; type: ADME, organism-based; conditions: in vivo
[13] = Half life in male ICR mouse at 1 mg/kg, iv measured upto 36 hrs by LC-MS/MS analysis; type: ADME, organism-based; conditions: in vivo
[14] = Selectivity index, ratio of IC50 for antiproliferative activity against mouse B16-F10 cells harboring wild type MTAP assessed as inhibition of cell viability to IC50 for antiproliferative activity against MTAP knockout mouse B16-F10 cells assessed as inhibition of cell viability; type: functional
[15] = Drug concentration in mouse plasma at 30 mg/kg, po; type: ADME, organism-based; conditions: in vivo
Daoy [16] = experiment: Antitumor activity against human Daoy cells xenografted in mouse assessed as reduction in SDMA level in tumor at 30 mg/kg, po measured after 28 days; type: functional, organism-based; conditions: time 28.0 day
[17] = target: S-adenosylmethionine synthase isoform type-2 (Mus musculus) (UniProt Q3THS6); experiment: Inhibition of MAT2A in mouse B16-F10 cells assessed as reduction in SAM level measured for 4 hrs by immunoblotting analysis; type: cell-based; conditions: dose <= 1.0 µM
SF-126 [18] = experiment: Induction of DNA damage in human SF-126 cells harboring wild type MTAP assessed as increase in gammaH2AX level at 0.1 to 10 uM measured for 96 hrs by immunofluorescence analysis; type: functional, cell-based; conditions: dose 0.1-10 µM
Cytochrome P450 2C9 = Cytochrome P450 2C9 (Homo sapiens, UniProt P11712); experiment: Inhibition of CYP2C9 in human liver microsomes using diclofenac as substrate incubated for 10 mins in presence of NADPH by LC-MS/MS analysis; type: ADME, Microsome
Cytochrome P450 2C9, sequence (P11712 whole entry): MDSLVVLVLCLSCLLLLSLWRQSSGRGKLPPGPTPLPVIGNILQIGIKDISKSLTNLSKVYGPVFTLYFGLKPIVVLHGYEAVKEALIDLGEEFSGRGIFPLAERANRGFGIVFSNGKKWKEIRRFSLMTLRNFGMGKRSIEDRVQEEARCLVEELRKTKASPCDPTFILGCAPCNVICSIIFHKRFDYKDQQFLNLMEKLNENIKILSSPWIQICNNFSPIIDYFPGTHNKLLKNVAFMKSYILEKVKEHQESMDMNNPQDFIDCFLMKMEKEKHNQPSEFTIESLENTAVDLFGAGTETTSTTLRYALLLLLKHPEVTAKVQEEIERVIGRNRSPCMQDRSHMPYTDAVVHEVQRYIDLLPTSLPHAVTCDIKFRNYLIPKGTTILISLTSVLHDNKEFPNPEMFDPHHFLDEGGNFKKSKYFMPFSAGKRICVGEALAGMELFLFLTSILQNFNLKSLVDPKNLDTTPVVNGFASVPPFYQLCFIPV

Cytochrome P450 2D6 = Cytochrome P450 2D6 (Homo sapiens, UniProt P10635); experiment: Inhibition of CYP2D6 in human liver microsomes using dextromethorphan as substrate incubated for 10 mins in presence of NADPH by LC-MS/MS analysis; type: ADME, Microsome
Cytochrome P450 2D6, sequence (P10635 whole entry): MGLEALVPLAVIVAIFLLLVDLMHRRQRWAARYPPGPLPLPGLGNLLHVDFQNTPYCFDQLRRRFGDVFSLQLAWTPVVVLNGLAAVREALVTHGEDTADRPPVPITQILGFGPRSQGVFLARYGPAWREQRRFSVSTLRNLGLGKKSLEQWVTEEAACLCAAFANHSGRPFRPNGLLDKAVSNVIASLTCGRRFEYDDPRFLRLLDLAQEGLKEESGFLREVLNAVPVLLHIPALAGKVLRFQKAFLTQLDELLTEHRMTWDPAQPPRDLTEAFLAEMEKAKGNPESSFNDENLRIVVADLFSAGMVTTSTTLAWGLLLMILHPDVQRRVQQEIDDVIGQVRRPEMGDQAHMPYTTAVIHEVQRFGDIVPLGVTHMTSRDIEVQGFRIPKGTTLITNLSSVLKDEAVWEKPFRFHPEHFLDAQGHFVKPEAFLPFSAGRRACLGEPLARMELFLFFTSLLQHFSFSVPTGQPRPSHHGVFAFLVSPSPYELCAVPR

[19] = Selectivity index, ratio of IC50 for antiproliferative activity against MTAP knockout human SF-126 cells to IC50 for antiproliferative activity against human SF-126 cells harboring wild type MTAP; type: functional
B16-F10 [20] = experiment: Inhibition of MAT2A in MTAP knockout mouse B16-F10 cells assessed as reduction in SAM level measured for 4 hrs by immunoblotting analysis; type: cell-based; conditions: dose <= 1.0 µM
B16-F10 [21] = experiment: Antiproliferative activity against MTAP knockout mouse B16-F10 cells assessed as inhibition of cell viability measured for 96 hrs by SRB assay; type: functional, cell-based; conditions: B16-F10, 96 h
Cytochrome P450 2C19 = Cytochrome P450 2C19 (Homo sapiens, UniProt P33261); experiment: Inhibition of CYP2C19 in human liver microsomes using S-mephenytoin as substrate incubated for 10 mins in presence of NADPH by LC-MS/MS analysis; type: ADME, Microsome
Cytochrome P450 2C19, sequence (P33261 whole entry, canonical isoform): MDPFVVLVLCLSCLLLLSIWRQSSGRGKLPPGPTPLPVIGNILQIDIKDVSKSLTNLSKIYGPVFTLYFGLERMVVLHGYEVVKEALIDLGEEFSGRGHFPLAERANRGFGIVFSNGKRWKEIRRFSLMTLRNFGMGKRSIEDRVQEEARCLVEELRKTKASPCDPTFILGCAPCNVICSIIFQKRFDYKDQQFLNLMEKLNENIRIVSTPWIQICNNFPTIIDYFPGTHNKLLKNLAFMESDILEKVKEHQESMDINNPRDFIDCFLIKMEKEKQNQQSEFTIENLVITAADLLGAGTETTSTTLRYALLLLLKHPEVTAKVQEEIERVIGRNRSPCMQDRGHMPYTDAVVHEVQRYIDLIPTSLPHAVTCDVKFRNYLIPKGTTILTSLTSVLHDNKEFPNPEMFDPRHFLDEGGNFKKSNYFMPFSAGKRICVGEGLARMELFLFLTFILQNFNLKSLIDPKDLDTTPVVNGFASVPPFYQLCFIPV

[22] = target: T1, S-adenosylmethionine synthase isoform type-2; experiment: Inhibition of MAT2A in MTAP null human MIA PaCa-2 cells assessed as reduction in SAM level measured for 4 hrs by immunoblotting analysis; type: cell-based; conditions: dose <= 1.0 µM
Target sequence in this assay (P31153 whole entry, looked up, canonical isoform): as the sequence (P31153 whole entry, canonical isoform) above

[23] = Toxicity in ICR mouse at 500 mg/kg, po measured for 7 days; type: organism-based; conditions: in vivo, 168 h, time 7 day
MKN-45 = experiment: Antiproliferative activity against MTAP null human MKN-45 cells assessed as inhibition of cell viability measured for 96 hrs by SRB assay; type: functional, cell-based
[24] = Plasma protein binding in mouse assessed as unbound fraction; type: ADME, cell-free
[25] = target: T1, S-adenosylmethionine synthase isoform type-2; experiment: Inhibition of MAT2A in human MIA PaCa-2 cells assessed as reduction in SAM level measured for 4 hrs by immunoblotting analysis; type: cell-based; conditions: dose <= 1.0 µM
Target sequence in this assay (P31153 whole entry, looked up, canonical isoform): as the sequence (P31153 whole entry, canonical isoform) above

Cytochrome P450 1A2 = target: T2, Cytochrome P450 1A2 (Homo sapiens, UniProt P05177); experiment: Inhibition of CYP1A2 in human liver microsomes using phenacetin as substrate incubated for 10 mins in presence of NADPH by LC-MS/MS analysis; type: ADME, Microsome
T2 sequence (P05177 whole entry): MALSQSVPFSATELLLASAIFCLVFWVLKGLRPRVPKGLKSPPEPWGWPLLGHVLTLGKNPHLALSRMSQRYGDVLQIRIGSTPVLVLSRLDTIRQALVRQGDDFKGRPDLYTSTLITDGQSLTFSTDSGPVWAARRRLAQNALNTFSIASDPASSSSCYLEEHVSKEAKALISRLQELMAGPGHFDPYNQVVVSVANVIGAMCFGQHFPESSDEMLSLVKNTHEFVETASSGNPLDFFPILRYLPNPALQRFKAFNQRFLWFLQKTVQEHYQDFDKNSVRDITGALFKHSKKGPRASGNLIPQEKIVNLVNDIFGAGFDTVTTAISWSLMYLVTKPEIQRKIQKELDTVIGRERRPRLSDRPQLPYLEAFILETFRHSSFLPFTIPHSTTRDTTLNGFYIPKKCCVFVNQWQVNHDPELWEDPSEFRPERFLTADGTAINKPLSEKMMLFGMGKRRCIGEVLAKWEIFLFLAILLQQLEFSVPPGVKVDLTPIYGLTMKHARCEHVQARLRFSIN

[26] = Cmax in male ICR mouse at 1 mg/kg, iv measured upto 36 hrs by LC-MS/MS analysis; type: ADME, organism-based; conditions: in vivo

- logD [1]: 3.69
- fraction unbound [4]: 0.003
- IC50 [6]: 0.049 µM
- solubility kinetic [7]: 3.11 µM (≈ 1.43 µg/mL)
- inhibition [9]: Active
- half-life [10]: 6.73 h
- clearance [11]: 5.17 mL/min/kg
- bioavailability [12]: 118%
- half-life [13]: 8.43 h
- Drug uptake [15]: Active
- inhibition [17]: Dose-dependent-effect
- IC50 (Cytochrome P450 2C9): 12.7 µM
- IC50 (Cytochrome P450 2D6): 9.2 µM
- IC50 (B16-F10 [21]): 0.43 µM
- IC50 (Cytochrome P450 2C19): 8.7 µM
- inhibition [22]: Dose-dependent-effect
- fraction unbound [24]: 0.016
- inhibition [25]: Dose-dependent-effect
- IC50 (Cytochrome P450 1A2): > 30 µM
- Cmax [26]: 985 ng/mL
SMILES: Cn1cnc2ccc(-c3nc4ccc(C5CC5)cc4n(-c4ccc(OC(F)F)cc4)c3=O)cc21
- Activity (BXPC-3): Active
- Activity (SF-126 [2]): Active
- Activity (Daoy [3]): Active
- Activity (B16-F10 [5]): Active
- TGI (MIA PaCa-2): Active
- Activity (SF-126 [8]): Active
- Ratio IC50 [14]: >46.5
- Activity (Daoy [16]): Active
- Activity (SF-126 [18]): Active
- Ratio IC50 [19]: >57
- inhibition (B16-F10 [20]): Dose-dependent-effect
- Activity [23]: Non-toxic
- Activity (MKN-45): Active
